Measurements reported in patent US7652070B2, “Treatment method for MMP-implicated pathologies” (priority 2007, dated 2010).

How the values were obtained:
cystinosis patients = conditions: cited from earlier work
MMP-9 = MMP-9 (Homo sapiens, UniProt P14780); experiment: Breakdown/inhibition of MMP-9 by cysteamine analyzed by zymography; format: biochemical; conditions: Michaelis-Mentin kinetics, FIG. 1
Text: FIG. 1 is a table illustrating inhibition of MMP-9 by cysteamine.
FIG. 1 illustrates the result of a laboratory test showing the breakdown of MMP-9 as analyzed by zymography. Because enzymes are structure specific, it can be inferred that there is inhibition of MMP-9 by cysteamine. It is believed that cysteamine inactivates MMP by breaking an important sulfur bond, causing the enzyme to unfold.

[1] = test system: pre-renal transplant cystinotics; conditions: cited from earlier work

MMP-9, sequence (P14780 94-707): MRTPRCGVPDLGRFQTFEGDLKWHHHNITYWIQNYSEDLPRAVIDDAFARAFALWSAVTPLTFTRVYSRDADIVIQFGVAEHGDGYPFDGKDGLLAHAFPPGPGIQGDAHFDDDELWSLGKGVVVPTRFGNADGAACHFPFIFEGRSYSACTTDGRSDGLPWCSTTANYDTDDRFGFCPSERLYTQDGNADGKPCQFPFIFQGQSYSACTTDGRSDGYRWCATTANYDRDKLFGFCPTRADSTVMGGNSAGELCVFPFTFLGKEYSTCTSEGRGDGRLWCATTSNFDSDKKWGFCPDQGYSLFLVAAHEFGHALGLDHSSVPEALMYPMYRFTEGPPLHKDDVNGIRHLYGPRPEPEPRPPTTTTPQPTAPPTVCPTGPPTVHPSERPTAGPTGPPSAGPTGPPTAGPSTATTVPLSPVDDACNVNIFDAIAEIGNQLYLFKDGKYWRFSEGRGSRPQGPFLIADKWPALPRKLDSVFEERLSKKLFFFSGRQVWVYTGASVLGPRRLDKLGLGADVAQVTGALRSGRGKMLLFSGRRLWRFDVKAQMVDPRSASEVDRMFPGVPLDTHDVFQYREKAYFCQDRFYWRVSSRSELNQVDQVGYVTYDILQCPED

Row | SMILES | efficacy of eye drop concentration (cystinosis patients; concentration 0.1%, cystinosis patients) | toxicity of eye drops (cystinosis patients; eye drop 0.5%, preserved with benzalkonium, up to 12 times per day, slight burning sensation possible) | Ki (MMP-9) [µM] | effect of cysteamine therapy on growth and renal function [1] | toxicity of cysteamine therapy [1]
1 | Cl.NCCS [Cysteamine {HCl}] | effective | no toxicity has not been observed | – | – | –
2 | NCCS [cysteamine, Cysteamine (HSCH2CH2NH2)] | – | – | 530 ± 140 | improved growth and stabilized renal function | without substantial toxicity
